From patent publication US10131679B2, “Substituted dihydropyrrolopyrazole compound” (UBE INDUSTRIES, LTD., priority 2014, dated 2018)

Columns and labels:
Type in all cases: cell-based
[1] = system: IL-2 production in human peripheral blood mononuclear cell (PBMC); experiment: Human PBMC CD3/CD28-induced IL-2 production inhibition test; conditions: 48 h, CD3/CD28 stimulation, incubation for 2 days, ELISA
Text: Human Peripheral Blood Mononuclear Cell (PBMC) CD3/CD28-Induced IL-2 Production Inhibition Test
PBMC was separated and collected by using Ficoll-Paque (17-1440-02 manufactured by GE Healthcare Japan Corp.) from blood collected from healthy human adult in the presence of heparin. RPMI1640 medium (manufactured by GIBCO/Thermo Fisher Scientific, Inc., REF. 11875) containing 10% FBS (manufactured by GIBCO/Thermo Fisher Scientific, Inc. REF. 10082) and containing a test compound dissolved in DMSO and 2 μg/mL anti-hCD28 (manufactured by R&D Systems, Inc., Cat. No. MAB342) was added at 100 μL/well to T cell Activation Plate Anti-Human CD3 96-well plate (manufactured by Corning Inc., REF. 354725), and subsequently, a PBMC suspension adjusted such that the number of cells was 2×10^6 cells/mL was added at 100 μL/well (final DMSO concentration: 0.1%). A RPMI1640 medium containing 10% FBS and containing 0.1% DMSO and 2 μg/mL anti-hCD28 was similarly added to wells not supplemented with the test compound. After incubation for 2 days in a carbon dioxide incubator, the culture supernatant was collected. The collected culture supernatant was stored at −20° C. until IL-2 content measurement.
In the measurement of IL-2 content in the culture supernatant, a sandwich ELISA kit Quantikine Human IL-2 (manufactured by R&D Systems, Inc., Cat. No. S2050) was used. The IL-2 content of each sample was calculated from the calibration curve of Standard IL-2 included in the kit. When the amount of IL-2 produced by CD3/CD28 stimulation in the case of the addition of only DMSO was defined as 100%, the rate of inhibition of IL-2 production at each concentration of the test compound was calculated. A test compound concentration inhibiting 50% of IL-2 production was calculated as an IC50 value (nM) from the concentration of the added test compound and the rate of inhibition of IL-2 production by the test compound by using EXSUS (version 8.0.0 or version 8.0.1, manufactured by CAC Exicare Corp.).

[2] = system: Human keratinocytes (NHEK-Neo Pooled); experiment: Human keratinocyte growth inhibition assay; conditions: 48 h, culture for 2 days, Cell Counting Kit-8
Procedure: Human Keratinocyte Growth Inhibition Assay
The measurement of a human keratinocyte growth inhibitory effect was carried out by modifying the method of Schafer et al. (British Journal of Pharmacology, 159, 842 (2011)).
Human keratinocytes (NHEK-Neo Pooled, manufactured by Lonza Group AG, Cat. No. 00192906) were cultured in KGM-Gold Bullet Kit (manufactured by Lonza Group AG, Cat. No. 00192060) and inoculated at 2.0×10^3 cells/well to a 96-well plate. After overnight culture in a carbon dioxide incubator, a test compound dissolved in DMSO (final DMSO concentration: 0.1%) was added and left standing in a carbon dioxide incubator. After culture for 2 days, the absorbance thereof was measured by using Cell Counting Kit-8 (343-07623 manufactured by Dojindo Laboratories)).
(§1) The rate of inhibition of cell growth at each concentration was calculated from the test compound concentration and the absorbance of Cell Counting Kit-8, and the concentration of the test compound necessary for inhibiting 50% of cell growth (IC50 value) was calculated by using EXSUS (version 8.0.0 or version 8.0.1, manufactured by CAC Exicare Corp.).

[3] = system: human breast cancer cell line (MCF-7); experiment: Human breast cancer (MCF-7) cell growth inhibition test; conditions: MCF7, 72 h, MCF-7, culture for 3 days, sulforhodamine B absorbance
Procedure: Human Breast Cancer (MCF-7) Cell Growth Inhibition Test
The measurement of a human breast cancer cell growth inhibitory effect was carried out by modifying the method of Simak et al. (Cancer Research, 69, 6208 (2009)).
A human breast cancer cell line (MCF-7) manufactured by DS Pharma Biomedical Co., Ltd., Cat. No. EC86012803, was cultured in MEM (manufactured by GIBCO/Thermo Fisher Scientific, Inc., REF. 11095-080) medium containing 10% FBS (manufactured by GIBCO/Thermo Fisher Scientific, Inc., REF. 10082-147), nonessential amino acids (manufactured by GIBCO/Thermo Fisher Scientific, Inc., REF. 11140-050), and 1% penicillin/streptomycin/amphotericin B (manufactured by GIBCO/Thermo Fisher Scientific, Inc., REF. 15240-096) and inoculated at 3.0×10^3 cells/well to a 96-well plate (manufactured by Corning Inc., REF. 353072). After overnight culture in a carbon dioxide incubator, it was replaced with a fresh MEM medium containing 10% FBS, nonessential amino acids, and 1% penicillin/streptomycin/amphotericin B on the next day, and a test compound dissolved in DMSO (manufactured by Wako Pure Chemical Industries, Ltd., Code No. 043-07216) (final DMSO concentration: 0.1%) was added and left standing in a carbon dioxide incubator. After culture for 3 days, the absorbance of each well was measured by using In Vitro Toxicology Assay Kit Sulforhodamine B based (manufactured by Sigma-Aldrich Co. LLC., Pcode 1001910706).
as §1, with “sulforhodamine B,” for “Cell Counting Kit-8,”

Row | IC50 [3] [nM] | SMILES | IC50 [1] [nM] | IC50 [2] [nM]
1 |  | CC(C)(CO)C(NC(=O)N1Cc2c(NC(=O)C3([Si](C)(C)C)CCC3)n[nH]c2C1(C)C)c1ccccc1 (racemic) [IV-354, N-(3-Hydroxy-2,2-dimethyl-1-phenylpropyl)-6,6-dimethyl-3-[1-(trimethylsilyl)cyclobutanecarboxamido]-4,6-dihydropyrrolo[3,4-c]pyrazole-5(1H)-carboxamide] | ≤ 50 | ≤ 500
2 |  | CC1(C)c2[nH]nc(NC(=O)C(C)(C)[Si](C)(C)C)c2CN1C(=O)N[C@H](CO)c1ccccc1 [II-114, (S)—N-(2-Hydroxy-1-phenylethyl)-6,6-dimethyl-3-[2-methyl-2-(trimethylsilyl)propanamido]-4,6-dihydropyrrolo[3,4-c]pyrazole-5(1H)-carboxamide] | ≤ 50 | 
3 |  | CC1(C)c2[nH]nc(NC(=O)C3([Si](C)(C)C)CC3)c2CN1C(=O)N[C@H](CO)c1ccccc1 [III-114, (S)—N-(2-Hydroxy-1-phenylethyl)-6,6-dimethyl-3-[1-(trimethylsilyl)cyclopropanecarboxamido]-4,6-dihydropyrrolo[3,4-c]pyrazole-5(1H)-carboxamide] | ≤ 50 | 
4 | ≤ 500 | CC[Si](C)(C)C1(C(=O)Nc2n[nH]c3c2CN(C(=O)N[C@H](CO)c2ccccc2)C3(C)C)CCC1 [IV-117, (S)-3-[1-(Ethyldimethylsilyl)cyclobutanecarboxamido]-N-(2-hydroxy-1-phenylethyl)-6,6-dimethyl-4,6-dihydropyrrolo[3,4-c]pyrazole-5(1H)-carboxamide] |  | 
5 |  | CCOC[C@@H](NC(=O)N1Cc2c(NC(=O)C3([Si](C)(C)C)CCC3)n[nH]c2C1(C)C)c1ccccc1 [IV-139, (S)—N-(2-Ethoxy-1-phenylethyl)-6,6-dimethyl-3-[1-(trimethylsilyl)cyclobutanecarboxamido]-4,6-dihydropyrrolo[3,4-c]pyrazole-5(1H)-carboxamide] | ≤ 50 | ≤ 500
6 |  | CC1(C)c2[nH]nc(NC(=O)C3([Si](C)(C)C)CCC3)c2CN1C(=O)N[C@H](CCCO)c1ccccc1 [IV-283, (R)—N-(4-Hydroxy-1-phenylbutyl)-6,6-dimethyl-3-[1-(trimethylsilyl)cyclobutanecarboxamido]-4,6-dihydropyrrolo[3,4-c]pyrazole-5(1H)-carboxamide] | ≤ 50 | 
7 | ≤ 500 | CC1(C)c2[nH]nc(NC(=O)C3([Si](C)(C)C)CCC3)c2CN1C(=O)N[C@H](CCCCO)c1ccccc1 [IV-291, (R)—N-(5-Hydroxy-1-phenylpentyl)-6,6-dimethyl-3-[1-(trimethylsilyl)cyclobutanecarboxamido]-4,6-dihydropyrrolo[3,4-c]pyrazole-5(1H)-carboxamide] |  | 
8 |  | CC(C)(O)C[C@@H](NC(=O)N1Cc2c(NC(=O)C3([Si](C)(C)C)CCC3)n[nH]c2C1(C)C)c1ccccc1 [IV-299, (R)—N-(3-Hydroxy-3-methyl-1-phenylbutyl)-6,6-dimethyl-3-[1-(trimethylsilyl)cyclobutanecarboxamido]-4,6-dihydropyrrolo[3,4-c]pyrazole-5(1H)-carboxamide] | ≤ 50 | ≤ 500
9 | ≤ 500 | CC1(C)c2[nH]nc(NC(=O)C3([Si](C)(C)C)CCC3)c2CN1C(=O)NCCO [IV-438, N-(2-Hydroxyethyl)-6,6-dimethyl-3-[1-(trimethylsilyl)cyclobutanecarboxamido]-4,6-dihydropyrrolo[3,4-c]pyrazole-5(1H)-carboxamide] |  | 
10 |  | CC1(C)c2[nH]nc(NC(=O)C3([Si](C)(C)C)CCC3)c2CN1C(=O)NCC(O)c1ccccc1 (stereo not drawn) [IV-450, N-(2-Hydroxy-2-phenylethyl)-6,6-dimethyl-3-[1-(trimethylsilyl)cyclobutanecarboxamido]-4,6-dihydropyrrolo[3,4-c]pyrazole-5(1H)-carboxamide] | ≤ 50 | 
11 | ≤ 500 | C[C@@H](CO)NC(=O)N1Cc2c(NC(=O)C3([Si](C)(C)C)CCC3)n[nH]c2C1(C)C [IV-455, (S)—N-(1-Hydroxypropan-2-yl)-6,6-dimethyl-3-[1-(trimethylsilyl)cyclobutanecarboxamido]-4,6-dihydropyrrolo[3,4-c]pyrazole-5(1H)-carboxamide] |  | 
12 | ≤ 500 | CC(C)[C@@H](CO)NC(=O)N1Cc2c(NC(=O)C3([Si](C)(C)C)CCC3)n[nH]c2C1(C)C [IV-475, (S)—N-(1-Hydroxy-3-methylbutan-2-yl)-6,6-dimethyl-3-[1-(trimethylsilyl)cyclobutanecarboxamido]-4,6-dihydropyrrolo[3,4-c]pyrazole-5(1H)-carboxamide] |  | 
13 | ≤ 500 | CC1(C)c2[nH]nc(NC(=O)C3([Si](C)(C)C)CCC3)c2CN1C(=O)N[C@H](CO)C1CCCCC1 [IV-495, (S)—N-(1-Cyclohexyl-2-hydroxyethyl)-6,6-dimethyl-3-[1-(trimethylsilyl)cyclobutanecarboxamido]-4,6-dihydropyrrolo[3,4-c]pyrazole-5(1H)-carboxamide] |  | 
14 |  | CO[C@@H](C(=O)N1Cc2c(NC(=O)C3([Si](C)(C)C)CCC3)n[nH]c2C1(C)C)c1ccccc1 [IV-1175, (R)—N-[5-(2-Methoxy-2-phenylacetyl)-6,6-dimethyl-1,4,5,6-tetrahydropyrrolo[3,4-c]pyrazol-3-yl]-1-(trimethylsilyl)cyclobutanecarboxamide] | ≤ 50 | ≤ 500
15 |  | CC[Si](C)(C)C1(C(=O)Nc2n[nH]c3c2CN(C(=O)[C@H](OC)c2ccccc2)C3(C)C)CCC1 [IV-1178, (R)-1-(Ethyldimethylsilyl)-N-[5-(2-methoxy-2-phenylacetyl)-6,6-dimethyl-1,4,5,6-tetrahydropyrrolo[3,4-c]pyrazol-3-yl] cyclobutanecarboxamide] | ≤ 50 | ≤ 500
16 |  | CC1(C)c2[nH]nc(NC(=O)C3([Si](C)(C)C)CCC3)c2CN1C(=O)[C@H](OC(F)F)c1ccccc1 [IV-1180, (R)—N-{5-[2-(Difluoromethoxy)-2-phenylacetyl]-6,6-dimethyl-1,4,5,6-tetrahydropyrrolo[3,4-c]pyrazol-3-yl}-1-(trimethylsilyl)cyclobutanecarboxamide] | ≤ 50 | ≤ 500
17 |  | CCO[C@@H](C(=O)N1Cc2c(NC(=O)C3([Si](C)(C)C)CCC3)n[nH]c2C1(C)C)c1ccccc1 [IV-1188, (R)—N-[5-(2-Ethoxy-2-phenylacetyl)-6,6-dimethyl-1,4,5,6-tetrahydropyrrolo[3,4-c]pyrazol-3-yl]-1-(trimethylsilyl)cyclobutanecarboxamide] | ≤ 50 | ≤ 500
